Measured values: patent US9051349B2, “Larazotide acetate compositions” (Alba Therapeutics Corp., priority 2007, dated 2015)
Converted amounts (≈) assume the structure as drawn. Where two headings read alike, the source gives them in different places. Residues, ends and D or L forms follow the SMILES beside them.

How the values were obtained:
physchem [1] = assay: physchem
Description: Approximate solubilities of Larazotide acetate Form A in different solvents were determined. Aliquots of the test solvent were added to weighed samples of Larazotide. The samples were sonicated to aid in dissolution. Visual inspection was used to determine if a sample had dissolved. The approximate solubility was calculated from the total amount of solvent added.

[2] = 5% to 95% RH sorption/desorption
Source text: Moisture sorption/desorption data were collected on a VTI SGA-100 Vapor Sorption Analyzer. Sorption and desorption data were collected over a range of 5% to 95% relative humidity (RH) at 10% RH intervals under a nitrogen purge. Samples were not dried prior to analysis. Equilibrium criteria used for analysis were less than 0.0100% weight change in five minutes, with a maximum equilibration time of three hours if the weight criterion was not met. Data were not corrected for the initial moisture content of the samples. NaCl and PVP were used as calibration standards.

[3] = Description: The stability of the chloride salt was tested at 25° C. without humidity control (in closed bottles). The stability of the acetate salt was determined at 25° C./60% RH.
physchem [4] = settings: water
Description: Solubilities of Larazotide acetate and the corresponding chloride salt in water were tested at 20° C. after 14 hours of vigorous stirring in the presence of residual solid. Concentrations of peptide are measured by standardized HPLC.

[5] = 40 C/75% RH, 1 and 2 months
Description: An appropriate amount of amorphous larazotide acetate and crystalline larazotide acetate was used for a stability study to evaluate quality parameters (purity, impurities, assay and ID) for these materials under various storage conditions. Data was collected at two time points, namely at 1 month and at 2 months of storage under the conditions tested.
Data was generated for storage of the three larazotide acetate samples stored at 40 C/75% RH. All three samples were analyzed at 1 and 2 months.

[6] = 25° C. without humidity control (closed bottles), timepoint 0
[7] = 25° C. without humidity control (closed bottles), timepoint 1
[8] = 25° C. without humidity control (closed bottles), timepoint 2

CC(C)C[C@H](NC(=O)[C@@H](NC(=O)CNC(=O)CN)C(C)C)C(=O)N[C@H](C(=O)N[C@@H](CCC(N)=O)C(=O)N1CCC[C@H]1C(=O)NCC(=O)O)C(C)C [Form A] (H-GGVLVQPG-OH)
solubility (physchem [1]; (1:1) DCM/MeOH): < 3000 µg/mL
solubility (physchem [1]; (1:1) Water/ACN): < 3000 µg/mL
solubility (physchem [1]; (1:1) Water/Dioxane): < 3000 µg/mL
solubility (physchem [1]; (1:1) Water/MeOH): < 3000 µg/mL
solubility (physchem [1]; Acetone): < 4000 µg/mL
solubility (physchem [1]; Acetonitrile (ACN)): < 4000 µg/mL
solubility (physchem [1]; Dichloromethane (DCM)): < 4000 µg/mL
solubility (physchem [1]; Dimethyl sulfoxide (DMSO)): < 4000 µg/mL
solubility (physchem [1]; Dioxane): < 4000 µg/mL
solubility (physchem [1]; Ethanol (EtOH)): < 4000 µg/mL
solubility (physchem [1]; Ethyl acetate (EtOAc)): < 4000 µg/mL
solubility (physchem [1]; Methanol (MeOH)): < 4000 µg/mL
solubility (physchem [1]; Tetrahydrofuran (THF)): < 4000 µg/mL
solubility (physchem [1]; Trifluoroethanol (TFE)): 4000 µg/mL (≈ 5.51 mM)
solubility (physchem [1]; water): 8000 µg/mL (≈ 11 mM)
solid form by XRPD following the moisture sorption experiment [2]: still Form A

CC(C)C[C@H](NC(=O)[C@@H](NC(=O)CNC(=O)CN)C(C)C)C(=O)N[C@H](C(=O)N[C@@H](CCC(N)=O)C(=O)N1CCC[C@H]1C(=O)NCC(=O)O)C(C)C [Larazotide Acetate] (H-GGVLVQPG-OH)
rate of deamidation ([3]; 25° C./60% RH): about 0.05 %/month
% HPLC Area (purity) ([3]; 25° C./60% RH, timepoint 0): 98.7%
Deamidated “Glu” % HPLC area ([3]; 25° C./60% RH, timepoint 0): 0.19%
% HPLC Area (purity) ([3]; 25° C./60% RH, timepoint 1): 98.4%
Deamidated “Glu” % HPLC area ([3]; 25° C./60% RH, timepoint 1): 0.22%
% HPLC Area (purity) ([3]; 25° C./60% RH, timepoint 2): 98.2%
Deamidated “Glu” % HPLC area ([3]; 25° C./60% RH, timepoint 2): 0.26%
% HPLC Area (purity) ([3]; 25° C./60% RH, timepoint 3): 97.7%
Deamidated “Glu” % HPLC area ([3]; 25° C./60% RH, timepoint 3): 0.40%
% HPLC Area (purity) ([3]; 25° C./60% RH, timepoint 6): 96.1%
Deamidated “Glu” % HPLC area ([3]; 25° C./60% RH, timepoint 6): 0.60%

CC(C)C[C@H](NC(=O)[C@@H](NC(=O)CNC(=O)CN)C(C)C)C(=O)N[C@H](C(=O)N[C@@H](CCC(N)=O)C(=O)N1CCC[C@H]1C(=O)NCC(=O)O)C(C)C [Larazotide Chloride] (H-GGVLVQPG-OH)
solubility at 14 h (physchem [4]): ≥ 300 mg/mL
rate of deamidation ([3]; 25° C. without humidity control (closed bottles)): about 1 %/month
% HPLC Area (purity) [3, 6]: 98.4%
Deamidated “Glu” % HPLC area [3, 6]: 1.06%
% HPLC Area (purity) [3, 7]: 97.8%
Deamidated “Glu” % HPLC area [3, 7]: 1.85%
% HPLC Area (purity) [3, 8]: 96.1%
Deamidated “Glu” % HPLC area [3, 8]: 3.02%

CC(C)C[C@H](NC(=O)[C@@H](NC(=O)CNC(=O)CN)C(C)C)C(=O)N[C@H](C(=O)N[C@@H](CCC(N)=O)C(=O)N1CCC[C@H]1C(=O)NCC(=O)O)C(C)C [amorphous larazotide acetate] (H-GGVLVQPG-OH)
overall rate of degradation [5]: ~10 % per month
